Columns and labels:
Conditions in all cases: mouse, in vivo
[1] = tested on: enterotoxinogenic strain of Clostridium perfringens; parameters: species or system axenic C3H/He mice
[2] = tested on: enterotoxinogenic strain of Clostridium perfringens
[3] = tested on: enterotoxinogenic strain of Clostridium perfringens; parameters: species or system axenic C3H/He mice; remark: listed apart in the source

In the case of `OC[C@H]1O[C@@H](O[C@H]2[C@H](O)[C@@H](O)C(O)O[C@@H]2CO)[C@H](O)[C@@H](O)[C@H]1O` (some centres unmarked) [Lactose], the “Clostridium perfringens count, Blood” value [1] is reported as 2.3 log CFU/g, the “Clostridium perfringens count, Cecum” value [1] is reported as 5.5 ± 0.8 log CFU/g and the “Clostridium perfringens count, Colon” value [1] is reported as 6.6 ± 0.1 log CFU/g. For the same molecule, the “Clostridium perfringens count, Ileum” value [1] was 3.4 ± 0.8 log CFU/g, the “Clostridium perfringens count, Kidney” value [1] was 3.0 log CFU/g and the “Clostridium perfringens count, Liver” value [1] was 4.4 log CFU/g. For the same molecule, the “Clostridium perfringens count, Spleen” value [1] was 4.2 log CFU/g, the “bacterial translocation, in words” value [1] was “promotes bacterial translocation” and the “colonization of the intestine vs control mice, in words” value [1] was “weak colonization of the intestine”. The mice died [2] was 100% and the “Count (log CFU/g of feces) of Clostridium perfringens” value [3] was “Mice dead or dying”.

Source: patent publication US9826766B2 (priority 2012, dated 2017)
